# From ChEMBL document CHEMBL3797158, “Discovery of potent, reversible MetAP2 inhibitors via fragment based drug discovery and structure based drug design-Part 1” (Bioorg Med Chem Lett, 2016)
# Experiments:
# Cytochrome P450 1A2 = molecular target: T1, Cytochrome P450 1A2 (Homo sapiens, UniProt P05177); experiment: Inhibition of human CYP1A2 expressed in Escherichia coli DH5-alpha; assay type: ADME
# T1 sequence (P05177 whole entry): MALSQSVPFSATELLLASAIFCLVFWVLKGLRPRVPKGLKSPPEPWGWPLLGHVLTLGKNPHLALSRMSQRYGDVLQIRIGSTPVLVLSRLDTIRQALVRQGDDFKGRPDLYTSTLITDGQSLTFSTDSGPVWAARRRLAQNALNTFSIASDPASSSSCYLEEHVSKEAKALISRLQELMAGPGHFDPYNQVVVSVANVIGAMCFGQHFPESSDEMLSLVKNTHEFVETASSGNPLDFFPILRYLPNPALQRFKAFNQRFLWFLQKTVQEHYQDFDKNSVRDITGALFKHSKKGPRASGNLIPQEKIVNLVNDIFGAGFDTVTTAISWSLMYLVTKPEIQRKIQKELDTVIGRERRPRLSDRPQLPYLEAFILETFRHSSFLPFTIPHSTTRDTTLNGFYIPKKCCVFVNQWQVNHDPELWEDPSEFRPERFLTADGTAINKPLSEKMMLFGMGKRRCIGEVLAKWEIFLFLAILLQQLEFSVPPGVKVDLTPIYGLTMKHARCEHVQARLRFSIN
# [1] = molecular target: Methionine aminopeptidase 2 (Homo sapiens, UniProt P50579); experiment: Inhibition of MetAP2 in HUVEC assessed as accumulation of N-Met-14-3-3gamma after 24 hrs by Western blot method; assay type: cell-based
# Mus musculus [2] = experiment: Antiobesity activity in po dosed diet-induced obese mouse assessed as body weight loss administered as qd for 28 days; assay type: functional, organism-based
# Mus musculus [3] = experiment: AUC in diet-induced obese mouse at 5 mg/kg, po; assay type: ADME, organism-based; settings: in vivo
# [4] = Half life in diet-induced obese mouse at 5 mg/kg, po or 1 mg/kg, iv; assay type: ADME, organism-based; settings: in vivo
# [5] = Volume of distribution in diet-induced obese mouse at 5 mg/kg, po or 1 mg/kg, iv; assay type: ADME, organism-based; settings: in vivo
# Mus musculus [6] = experiment: Oral bioavailability in diet-induced obese mouse at 5 mg/kg; assay type: ADME, organism-based; settings: in vivo
# Sequence of Methionine aminopeptidase 2 (P50579 whole entry): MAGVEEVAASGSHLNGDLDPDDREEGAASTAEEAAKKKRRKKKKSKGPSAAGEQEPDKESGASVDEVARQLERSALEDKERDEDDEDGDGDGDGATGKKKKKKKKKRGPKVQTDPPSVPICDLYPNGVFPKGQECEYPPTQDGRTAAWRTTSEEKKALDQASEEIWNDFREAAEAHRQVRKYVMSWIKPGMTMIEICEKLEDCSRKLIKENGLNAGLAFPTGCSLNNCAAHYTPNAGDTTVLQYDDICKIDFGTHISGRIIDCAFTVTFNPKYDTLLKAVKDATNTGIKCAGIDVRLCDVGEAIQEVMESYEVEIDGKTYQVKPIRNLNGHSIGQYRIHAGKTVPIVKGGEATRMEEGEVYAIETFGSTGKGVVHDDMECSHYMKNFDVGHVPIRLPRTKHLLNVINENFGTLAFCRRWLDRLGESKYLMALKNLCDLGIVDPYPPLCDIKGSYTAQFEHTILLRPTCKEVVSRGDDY
IC50 (Cytochrome P450 1A2),Structure (SMILES),other results
15.8 µM,CNC(=O)c1ccc(-c2cc(C(F)(F)F)cc3[nH]ncc23)c(OC)c1,
> 50.1 µM,Cc1nc(N2CC[C@H](O)C2)ncc1-c1cc(C(F)(F)F)cc2[nH]ncc12,EC50 [1]: 0.121 µM
> 50.1 µM,Cc1cc(C(=O)NCCO)ncc1-c1cc(C(F)(F)F)cc2[nH]ncc12,
0.316 µM,FC(F)(F)c1cc(-c2ccc3nccn3c2)c2cn[nH]c2c1,
> 50.1 µM,COc1cc(C(=O)NCCO)ccc1-c1cc(C(F)(F)F)cc2[nH]ncc12,
> 50.1 µM,O=C(NCCO)c1ccc(-c2cc(C(F)(F)F)cc3[nH]ncc23)c(F)c1,
> 50.1 µM,Cc1nc(N2CC[C@@H](O)C2)ncc1-c1cc(C(F)(F)F)cc2[nH]ncc12 [TP-004],Activity (Mus musculus [2]): Dose-dependent effect; EC50 [1]: 0.015 µM; AUC (Mus musculus [3]): 15084 ng·h/mL; half-life [4]: 2 h; Vd [5]: 1.25 L/kg; F (Mus musculus [6]): 58%
